Data published in patent US20250057748A1, “FORMULATIONS OF DIHYDROKAEMPFEROL” (DEBUT BIOTECHNOLOGY, INC., priority 2023, published 2025).

Legend:
[1] = Solubility of dihydrokaempferol in various solvents; type: physicochemical
Source text: Table 1, provided below, provides solubility data for dihydrokaempferol in various solvents.

[2] = Dihydrokaempferol stability at 70° C. in various solvents; type: physicochemical
Protocol: Table 2, provided below, provides stability data for compositions comprising dihydrokaempferol in various solvents, when stored at 70° C. for up to one (1) month.

[3] = ABTS antioxidant assay (aqueous medium); type: biochemical
Source text: The 2,2′-Azinobis [3-ethylbenzothiazoline-6-sulfonic acid]-diammonium salt (ABTS) antioxidant assay is designed to evaluate the antioxidant activity of compositions comprising dihydrokaempferol in an aqueous medium.
ABTS+ solution is generated as a free radical and used to measure relative ability of a compound to scavenge free radicals. Reduction of the absorbance at 734 nm was standardized to solvent control as an indication of ABTS+ scavenging.

[4] = DPPH antioxidant activity assay (organic medium); type: biochemical
Source text: The 2,2-diphenyl-1-picrylhydrazyl (DPPH) antioxidant assay is designed to evaluate the antioxidant activity of compositions comprising dihydrokaempferol in an organic medium. 2,2-diphenyl-1-picrylhydrazyl (DPPH) is a stable free radical used to evaluate free radical scavenging capacity of a material. In the presence of an antioxidant DPPH is reduced, resulting in the formation of a colorless solution. Reduction of absorbance at 517 nm is standardized to solvent control as an indication of DPPH scavenging.

[5] = biological target: T1, human neutrophil elastase (Homo sapiens, UniProt P08246); test: Elastase enzyme inhibition; type: biochemical
T1 sequence (P08246 30-267): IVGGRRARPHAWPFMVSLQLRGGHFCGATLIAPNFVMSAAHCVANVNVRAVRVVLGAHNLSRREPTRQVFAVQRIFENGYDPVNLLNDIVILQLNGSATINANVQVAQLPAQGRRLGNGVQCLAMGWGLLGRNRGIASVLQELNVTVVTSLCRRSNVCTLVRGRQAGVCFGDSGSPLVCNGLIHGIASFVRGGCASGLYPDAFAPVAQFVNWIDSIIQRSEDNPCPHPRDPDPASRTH
Protocol: The assay was conducted to evaluate the elastase enzyme inhibition activity of compositions comprising dihydrokaempferol.
Neutrophil infiltration and neutrophil elastase are both increased in the skin in response to UV stress. […] Therefore, inhibition of this enzyme, particularly in combination with antioxidant activity, is effective in delaying wrinkle development and aiding in maintaining skin integrity. This assay is measures release of 4-nitroaniline from an Me-Suc-Ala-Ala-Pro-Val-pNA by human neutrophil elastase and can be quantified at 405 nm by comparing to solvent control.

glycation = test: Glycation inhibition assay; type: biochemical
Protocol: The assay was conducted to evaluate the glycation inhibition activity of compositions comprising dihydrokaempferol.
Nonenzymatic glycation can occur when glucose reacts with proteins, forming a Schiff base intermediate that subsequently undergoes Amadori rearrangement to form glycosylated proteins, when they react with skin proteins to form Advanced Glycation End products (AGE). AGE formation can result in loss of skin elasticity and impaired cellular function. The glycation inhibition ability of a compound is measured by change in fluorescence at excitation/emission of 360 nm/420 nm relative to solvent control.

IL-6 = test: Anti-inflammatory activity: IL-6 ELISA in LPS/Poly:IC stressed keratinocytes; type: cell-based, Human; details: for % Reduction vs Treated / IL-6: stimulated NHEK, 24 hours
Protocol: Normal Human Epidermal Keratinocytes (NHEK) were stressed with a cocktail of lipopolysaccharide (LPS) and Polyinosinic-polycytidylic acid sodium salt (Poly:IC), external aggressors capable of inducing an inflammatory response. Stressed cells were subsequently treated with test articles and incubated for 24 hours. Reduction in inflammatory markers was measured by ELISA and % reduction calculated relative to solvent control.

Filaggrin = test: Skin barrier marker by flow cytometry in hDF; type: cell-based, Human; details: 0.003% DHK
Protocol: (§1) Human dermal fibroblasts (hDF) were treated with test article of interest. Barrier markers of interest were measured by flow cytometry.

Loricrin = test: Skin barrier marker by flow cytometry in hDF; type: cell-based, Human; details: 0.003% DHK
Protocol: as §1

[6] = tested on: Human dermal fibroblasts (hDF); test: Wound healing: fibroblast regrowth after insert removal, image analysis; type: cell-based; details: 0.003% DHK
Protocol: Human dermal fibroblasts (hDF) were plated in the presence of a growth-preventing insert. The insert was subsequently removed and regrowth measured by image analysis.

Elastin = test: Anti-aging: elastin ELISA in hDF; type: cell-based, Human
Protocol: Human dermal fibroblasts (hDF) were treated with test article of interest. Elastin was quantified by ELISA.

[7] = tested on: C-X-C Motif Chemokine Ligand 1 (CXCL1); test: Differential gene expression in keratinocytes; type: cell-based; details: normal human epidermal keratinocytes, 1% DHK
Source text: (§2) Log 2fold changes are detailed in FIG. 4. Table 13, provided below, highlights certain examples of differential gene expression in normal human epidermal keratinocytes treated with compositions comprising 1% DHK.

[8] = tested on: C-X-C Motif Chemokine Ligand 2 (CXCL2); test: Differential gene expression in keratinocytes; type: cell-based; details: normal human epidermal keratinocytes, 1% DHK
Source text: as §2

[9] = tested on: Fibroblast Growth Factor 2 (FGF2); test: Differential gene expression in keratinocytes; type: cell-based; details: normal human epidermal keratinocytes, 1% DHK
Source text: as §2

Interleukin 24 (IL24) = test: Differential gene expression in keratinocytes; type: cell-based; details: normal human epidermal keratinocytes, 1% DHK
Source text: as §2

Interleukin 6 (IL6) = test: Differential gene expression in keratinocytes; type: cell-based; details: normal human epidermal keratinocytes, 1% DHK
Source text: as §2

Thrombospondin 4 (THBS4) = test: Differential gene expression in keratinocytes; type: cell-based; details: normal human epidermal keratinocytes, 1% DHK
Source text: as §2

[10] = tested on: Transient Receptor Potential Cation Channel Subfamily (TRPV6); test: Differential gene expression in keratinocytes; type: cell-based; details: normal human epidermal keratinocytes, 1% DHK
Source text: as §2

[11] = tested on: Tumor Necrosis Factor (TNF); test: Differential gene expression in keratinocytes; type: cell-based; details: normal human epidermal keratinocytes, 1% DHK
Source text: as §2

[12] = tested on: Vascular Endothelial Growth Factor A (VEGFA); test: Differential gene expression in keratinocytes; type: cell-based; details: normal human epidermal keratinocytes, 1% DHK
Source text: as §2

macrophage cell lines = macrophage cell lines and skin; Venditti et al. 2013; Lee et al. 2013; cited from earlier work
[13] = Venditti et al. 2013; Liang et al. 2020; cited from earlier work
[14] = Venditti et al. 2013; Liang et al. 2020; cited from earlier work; remark: listed apart in the source
[15] = mice; Liang et al. 2020; cited from earlier work
Sirtuin-1 = details: reduces oxidative stress and inflammatory response; Zhang et al. 2021; cited from earlier work
PPAR-72 = details: stimulates glucose uptake; Zhang et al. 2011; cited from earlier work
[16] = Isopropyl lauroyl sarcosinate, 1 month
[17] = Isopropyl lauroyl sarcosinate, 1 week

O=C1c2c(O)cc(O)cc2O[C@H](c2ccc(O)cc2)[C@H]1O [dihydrokaempferol]
Solubility (% w/w) ([1]; Solvent: 1,2 Propanediol): 0.00 % w/w
Solubility (% w/w) ([1]; Solvent: 1,2 heptanediol): 5.00 % w/w
Solubility (% w/w) ([1]; Solvent: 3-methyl-1,3-butanediol): 0.00 % w/w
Solubility (% w/w) ([1]; Solvent: Butylene glycol): 5.00 % w/w
Solubility (% w/w) ([1]; Solvent: C9-12 Alkane): 0.00 % w/w
Solubility (% w/w) ([1]; Solvent: C15-19 Alkane): 0.00 % w/w
Solubility (% w/w) ([1]; Solvent: Capric/Caprylic Triglyceride): 0.00 % w/w
Solubility (% w/w) ([1]; Solvent: Di(propylene glycol) dibenzoate): 0.00 % w/w
Solubility (% w/w) ([1]; Solvent: Dimethyl Isosoribide): 20.00 % w/w
Solubility (% w/w) ([1]; Solvent: Ethoxydiglycol): 25.00 % w/w
Solubility (% w/w) ([1]; Solvent: Isoamyl Laurate): 0.00 % w/w
Solubility (% w/w) ([1]; Solvent: Isopentyldiol): 5.00 % w/w
Solubility (% w/w) ([1]; Solvent: Isopropyl Lauroyl sarcosinate): 10.00 % w/w
Solubility (% w/w) ([1]; Solvent: Isopropyl Myristate): 0.00 % w/w
Solubility (% w/w) ([1]; Solvent: Jojoba Oil): 0.00 % w/w
Solubility (% w/w) ([1]; Solvent: Neopentyl Glycol Dihexanoate): 0.00 % w/w
Solubility (% w/w) ([1]; Solvent: Oleyl Alcohol): 0.00 % w/w
Solubility (% w/w) ([1]; Solvent: Pentylene glycol): 5.00 % w/w
Solubility (% w/w) ([1]; Solvent: Phenylpropanol): 0.00 % w/w
Solubility (% w/w) ([1]; Solvent: Propanediol): 5.00 % w/w
Solubility (% w/w) ([1]; Solvent: Squalene): 0.00 % w/w
Solubility (% w/w) ([1]; Solvent: Sunflower Oil): 0.00 % w/w
Solubility (% w/w) ([1]; Solvent: Tri C12-13 alkyl citrate): 0.00 % w/w
Solubility (% w/w) ([1]; Solvent: Tributyl citrate): 0.00 % w/w
Solubility (% w/w) ([1]; Solvent: Tributyl-O-acetylcitrate): 0.00 % w/w
Solubility (% w/w) ([1]; Solvent: Triethyl Citrate): 0.00 % w/w
Solubility (% w/w) ([1]; Solvent: Triethyl-O-acetylcitrate): 0.00 % w/w
Solubility (% w/w) ([1]; Solvent: Triisostearin): 0.00 % w/w
Solubility in words ([1]; in Helianthus Annuus (Sunflower) Seed Oil): insoluble
Solubility in words ([1]; in a number of other commonly used solvents): minimally soluble
Solubility in words ([1]; in capric/caprylic triglyceride): minimally soluble
Solubility in words ([1]; in dimethyl isosorbide, ethoxydiglycol, glycol, isopropyl lauroyl sarcosinate, pentylene glycol, 1,2 hexanediol, propanediol, butylene glycol, phenylpropanol, isopentyldiol, 1,2 heptanediol): soluble
Solubility in words ([1]; in isopropyl myristate): minimally soluble
Solubility in words ([1]; in oil): poorly soluble or insoluble
Solubility in words ([1]; in water): poorly soluble or insoluble
% remaining ([2]; Dimethyl isosorbide, 1 month): 91%
Concentration (% w/w) 1 month ([2]; Dimethyl isosorbide, 1 month): 6.04 % w/w
% remaining ([2]; Dimethyl isosorbide, 1 week): 95%
Concentration (% w/w) 1 week ([2]; Dimethyl isosorbide, 1 week): 6.33 % w/w
Concentration (% w/w) Initial ([2]; Dimethyl isosorbide): 6.66 % w/w
% remaining ([2]; Ethoxydiglycol, 1 month): 84%
Concentration (% w/w) 1 month ([2]; Ethoxydiglycol, 1 month): 6.54 % w/w
% remaining ([2]; Ethoxydiglycol, 1 week): 94%
Concentration (% w/w) 1 week ([2]; Ethoxydiglycol, 1 week): 7.27 % w/w
Concentration (% w/w) Initial ([2]; Ethoxydiglycol): 7.74 % w/w
% remaining [2, 16]: 92%
Concentration (% w/w) 1 month [2, 16]: 7.71 % w/w
% remaining [2, 17]: 97%
Concentration (% w/w) 1 week [2, 17]: 8.14 % w/w
Concentration (% w/w) Initial ([2]; Isopropyl lauroyl sarcosinate): 8.40 % w/w
% Radical Inhibition ([3]; ABTS, 0.00625 % w/w): 32.55%
% Radical Inhibition ([3]; ABTS, 0.0125 % w/w): 42.49%
% Radical Inhibition ([3]; ABTS, 0.025 % w/w): 56.17%
IC50 antioxidant activity ([3]; ABTS, aqueous solvent system, calculated): 0.0143 % w/w
Lowest concentration with antioxidant activity ([3]; aqueous systems): 0.00625 % w/w
% Radical Inhibition ([4]; DPPH, 0.016 % w/w): 16.54%
% Radical Inhibition ([4]; DPPH, 0.031 % w/w): 31.00%
% Radical Inhibition ([4]; DPPH, 0.063 % w/w): 61.12%
IC50 antioxidant activity ([4]; DPPH, organic solvent system, calculated): 0.05 % w/w
Lowest concentration with antioxidant activity ([4]; organic solvent systems): 0.016 % w/w
Lowest concentration inhibiting elastase enzyme activity [5]: 0.1 % w/w
inhibition at 0.02 % strength ([5]; 0.020 % w/w): 0%
inhibition at 0.1 % strength ([5]; 0.100 % w/w): 29.6%
inhibition at 0.5 % strength ([5]; 0.500 % w/w): 81.5%
IC50 elastase enzyme inhibition ([5]; calculated): 0.13 % w/w
Lowest concentration inhibiting glycation (glycation): 0.004 % w/w
% Glycation Inhibition (glycation; 0.004 % w/w): 25.05%
% Glycation Inhibition (glycation; 0.011 % w/w): 42.23%
% Glycation Inhibition (glycation; 0.033 % w/w): 64.87%
% Glycation Inhibition (glycation; 0.100 % w/w): 82.42%
IC50 glycation inhibition (glycation; calculated): 0.016 % w/w
% Reduction vs Treated (IL-6; 0.001% DHK): 31.32%
IL-6 (IL-6; 0.001% DHK): 838.7 pg/mL
% Reduction vs Treated (IL-6; 0.002% DHK): 43.70%
IL-6 (IL-6; 0.002% DHK): 687.5 pg/mL
% Reduction vs Treated (IL-6; 0.003% DHK): 64.79%
IL-6 (IL-6; 0.003% DHK): 430.0 pg/mL
Reduction of inflammatory marker IL-6 (up to) (IL-6; in vitro, summary of Table 9): up to 64.79%
% Total Population (Filaggrin): 42.2%
% Total Population (Loricrin): 19.3%
Closure Rate 24 hr ([6]; 24 hr): 4.17
Closure Rate 48 hr ([6]; 48 hr): 9.40
Elastin (Elastin; 0.001% DHK): 23.1 ng/mL
Elastin (Elastin; 0.003% DHK): 16.6 ng/mL
Elastin (Elastin; 0.005% DHK): 15.9 ng/mL
Log2 Fold Change [7]: −1.91
Log2 Fold Change [8]: −4.19
Log2 Fold Change [9]: 1.82
Log2 Fold Change (Interleukin 24 (IL24)): −2.01
Log2 Fold Change (Interleukin 6 (IL6)): −5.54
Log2 Fold Change (Thrombospondin 4 (THBS4)): 3.30
Log2 Fold Change [10]: 2.19
Log2 Fold Change [11]: −3.39
Log2 Fold Change [12]: 2.32
Anti-inflammatory activity (macrophage cell lines): anti-inflammatory activity
Function as antioxidant [13]: antioxidant
Function as anti-diabetic [14]: anti-diabetic
Treatment of severe acute pancreatitis [15]: treatment for severe acute pancreatitis
Effect on Sirtuin-1 (Sirtuin-1): upregulates
Effect on PPAR-72 expression (PPAR-72): increases
